{"source": "paper PMC10756276", "about": "“Highly specific σ2R/TMEM97 ligand FEM-1689 alleviates neuropathic pain and inhibits the integrated stress response” (Proceedings of the National Academy of Sciences of the …, 2023)", "key": {"[1]": {"system": "models of traumatic brain injury (TBI)", "details": "blast injury and controlled cortical impact models; cited from earlier work"}, "[2]": {"system": "p-eIF2α in mouse DRG neurons", "experiment": "p-eIF2α immunocytochemistry in cultured DRG neurons", "format": "cell-based", "details": "16 h; for phosphorylation of eIF2α: wild-type mouse DRG neurons, 10, 30, 100, 300 nM; for p-eIF2α levels: ISRIB 200 nM", "method": "(§1) The ICC protocol was based on a previously published protocol ([76]). […] Cells were blocked with 10% normal goat serum (NGS) in PBS-triton X (0.1%). […] Antibodies were incubated at 4 °C overnight. […] It was washed with PBS twice. […] Images were analyzed using Olympus CellSens. […] Number of cells analyzed are detailed in SI Appendix, Tables S3 and S4. […]\n(§2) T his BSA gradient containing the cells was centrifuged at 900g for 5 min at room temperatur e.\n(§3) The pellet containing the cells was resuspended in Br ainPhys media (STEMCell #05790) containing 2% […]\n(§4) 1% Gluta Max (Gibco # 350 5 0061). Hu man DRG ne uron s were plated a nd grown o n glass coverslips coate d with po ly-D-lysine (Sigma #P7405). C ultured D RG neurons were plated for 24 hours before being treated.\n(§5) Methylglyoxal (Sigma- Aldrich #M0252) and F EM- 1689 were serially diluted in media.\n(§6) Mouse samples - DRG cultures […]\n(§7) anesthesia and decapitated. […]\n(§8) section above with minor differences.\n(§9) Mouse DRG neurons were grown in\n(§10) SAS-0132 and DKR-1677 were […]\n(§11) dissolved in 100% DMSO to a final concentr ation of 200mM and stored at - 20 °C. and DKR-1677 were serially diluted in media. Untreated media was completely replaced with media containing each compound. […]\n(§12) Slides were […]\n(§13) incubated with 1:2 diluted hydrogen peroxide in distilled water for 10 min at r oom temper ature and washed twice in distilled water. The protease IV was applied to each section and incubated for 5 min at room temperature. Slides were w ashed twice in 1X PBS and RNA scope was performed immediately. A mixture of probes - Tmem97, Scn10a, and Fabp7 – was hybridized for 2 hours at 40 °C in a humidity control tray"}, "[3]": {"system": "retinal ganglion cells", "parameters": "method as in PMID 36456686", "details": "ischemia/reperfusion injury; cited from earlier work"}, "[4]": {"system": "p-eIF2α in human DRG neurons", "experiment": "p-eIF2α immunocytochemistry in cultured human DRG neurons", "format": "cell-based", "details": "MGO 1 µM"}, "[5]": {"system": "BiP in mouse DRG neurons", "experiment": "BiP immunocytochemistry in cultured DRG neurons", "format": "cell-based", "details": "ISRIB 200 nM", "method": "as §1, §2, §3, §4, §5, §6, §7, §8, §9, §10, §11, §12, §13"}, "[6]": {"system": "neurite outgrowth", "parameters": "method as in PMID 31836389", "details": "cited from earlier work"}, "[7]": {"system": "MGO-induced mechanical hypersensitivity, wild-type mice", "experiment": "Methylglyoxal-induced mechanical hypersensitivity", "format": "in vivo, mouse"}, "[8]": {"system": "mechanical hypersensitivity", "parameters": "method as in PMID 30157134, PMID 32677089", "details": "cited from earlier work"}, "[9]": {"target": "BZP Rat Brain", "experiment": "PDSP competitive binding assay", "details": "dose response curve"}, "[10]": {"system": "mouse model of neuropathic pain", "parameters": "method as in PMID 28644012, PMID 27926996", "details": "cited from earlier work; for mechanical hypersensitivity / antinociceptive effect: mouse neuropathic pain model"}, "[11]": {"system": "neuronal toxicity induced by mutant huntingtin protein", "parameters": "method as in PMID 36108101", "details": "model of Huntington's disease; cited from earlier work"}, "[12]": {"system": "animal models of age-related neurodegeneration", "parameters": "method as in PMID 27926996, PMID 29426225", "details": "cited from earlier work"}, "[13]": {"system": "p-ACC in mouse DRG neurons", "experiment": "p-ACC immunocytochemistry in cultured DRG neurons", "format": "cell-based", "details": "16 h; FEM-1689 10, 100, 1,000 nM; A769662 100 µM; wild-type and TMEM97KO neurons", "method": "as §1, §2, §3, §4, §5, §6, §7, §8, §9, §10, §11, §12\nincubated with 1:2 diluted hydrogen peroxide in distilled water for 10 min at r oom temper ature and washed twice in distilled water. […]"}}, "note": "“Also recorded” adds a separate entry of the source.", "data": [{"smiles": "CCCN1CCN(c2ccc3c(c2)C2CC3CCN2C(=O)OCc2ccccc2)CC1", "note": "(stereo not shown) [DKR-1677, reference compound]", "values": [{"measurement": "protection in traumatic brain injury", "setting": "[1]", "result": "protective in two different models of traumatic brain injury"}, {"measurement": "phosphorylation of eIF2α", "setting": "[2]", "result": "promote the phosphorylation of eIF2α; also recorded: stimulate the ISR by promoting the phosphorylation of eIF2α"}, {"measurement": "protection of retinal ganglion cells", "setting": "[3]", "result": "protects retinal ganglion cells from ischemia/reperfusion injury"}]}, {"smiles": "CC(=O)C=O", "note": "[MGO, Methylglyoxal, reference compound]", "values": [{"measurement": "p-eIF2α levels", "setting": "[4]", "result": "increased p-eIF2α levels"}]}, {"smiles": "O=C(COc1ccc(Cl)cc1)NC1CCC(NC(=O)COc2ccc(Cl)cc2)CC1", "note": "(stereo not shown) [ISRIB, reference compound]", "values": [{"measurement": "BiP levels", "setting": "[5]; TMEM97KO mouse DRG neurons", "result": "reduce BiP levels"}, {"measurement": "BiP levels", "setting": "[5]; wild-type mouse DRG neurons", "result": "reduce BiP levels"}, {"measurement": "neurite outgrowth", "setting": "[6]", "result": "enhances neurite outgrowth"}, {"measurement": "p-eIF2α levels", "setting": "[2]; TMEM97KO mouse DRG neurons", "result": "failed to change p-eIF2α immunoreactivity"}, {"measurement": "p-eIF2α levels", "setting": "[2]; wild-type mouse DRG neurons", "result": "reduced p-eIF2α levels in wild-type neurons"}, {"measurement": "time after drug administration at which antiallodynic effects were observed", "setting": "[7]; ISRIB 2.5 mg/kg IP", "result": 3, "unit": "h"}, {"measurement": "MGO-induced mechanical hypersensitivity", "setting": "[7]; MGO 20 ng intraplantar, FEM-1689 20 mg/kg IV or ISRIB 2.5 mg/kg IP 24 h after MGO", "result": "transient; also recorded: reverted to a hypersensitive state 24 h after injection"}, {"measurement": "duration of efficacy on mechanical hypersensitivity in vivo", "setting": "[8]", "result": "hours"}]}, {"smiles": "O=C1CN=C(c2ccccc2Cl)c2cc([N+](=O)[O-])ccc2N1", "note": "[clonazepam, reference compound]", "values": [{"measurement": "LogKi, BZP Rat Brain", "setting": "[9]; given as LogKi with negative sign", "result": -8.89}, {"measurement": "Ki", "setting": "[9]; read-out: Ki, BZP Rat Brain", "result": 1.29, "unit": "nM"}]}, {"smiles": "OCCCN1CCCC2CC1c1cc(-c3ccc(C(F)(F)F)cc3)ccc12", "note": "(stereo not shown) [UKH-1114]", "values": [{"measurement": "mechanical hypersensitivity / antinociceptive effect", "setting": "[10]", "result": "alleviates mechanical hypersensitivity following nerve injury"}, {"measurement": "neuronal toxicity", "setting": "[11]", "result": "reduces neuronal toxicity"}]}, {"smiles": "CN1CCN(c2ccc3c(c2)C2CC3CCN2C(=O)OCc2ccccc2)CC1", "note": "(stereo not shown) [SAS-0132]", "values": [{"measurement": "effect on the antinociceptive effects of UKH-1114", "setting": "[10]", "result": "inhibit the antinociceptive effects of UKH-1114; also recorded: blocks the antinociceptive activity of UKH-1114"}, {"measurement": "mechanical hypersensitivity / antinociceptive effect", "setting": "[10]", "result": "has no antinociceptive effect on its own"}, {"measurement": "phosphorylation of eIF2α", "setting": "[2]", "result": "promote the phosphorylation of eIF2α; also recorded: stimulate the ISR by promoting the phosphorylation of eIF2α"}, {"measurement": "neuroprotection and cognitive performance", "setting": "[12]", "result": "neuroprotective and improves cognitive performance"}]}, {"smiles": "N#Cc1c(O)c2c(-c3ccc(-c4ccccc4O)cc3)csc2[nH]c1=O", "note": "[A769662, reference compound]", "values": [{"measurement": "p-ACC levels", "setting": "[13]", "result": "elevate; also recorded: increased p-ACC levels in both wild-type and TMEM97KO neurons"}]}, {"smiles": "O=C(O)CCCc1ccccc1", "note": "[4-PBA]", "values": [{"measurement": "duration of efficacy on mechanical hypersensitivity in vivo", "setting": "[8]", "result": "hours"}]}]}
